The structures appear in SMILES notation.

One assay concerns PC3-luc cells. Nature of the assay: PCa intracardiac injection model, bone destruction by CT and survival. It counts as in vivo, mice.
For assay [1], the system named is RAW 267.4 cells. The assay is described as follows: Osteo Assay pit formation, osteoclast-mediated bone degradation. The assay is classed as cell-based, mouse.
In assay [2] the test system is RAW 267.4 cells. Nature of the assay: Osteoclast morphology and maturation (actin/DAPI immunofluorescence, TRAP staining). The settings on record: Raf1-specific inhibitors; TRAP staining, multinucleated cells, resorptive cavity formation. It counts as cell-based, mouse. From the text:
Treatment of RAW 267.4 cells with KBU2046 induces several structural and functional changes. It reduces RANKL-mediated formation of multinucleated cells, and those that do form have lower numbers of nuclei (see 40× panels, FIG. 4B). The characteristic prominent actin ring (white arrow) surrounding the resorptive cavity (yellow arrow) is readily apparent in control cells treated with RANKL ligand, but is lacking in KBU2046-treated cells (100×, panels). Consistent with it inhibiting maturation of RAW 267.4 cells, TRAP staining is decreased in KBU2046-treated cells (FIG. 4C).
FIG. 4 represents the KBU2046 inhibition of osteoclast function. FIG. 4A compares effects on Raf1 activation. RAW 267.4 cells were treated with RANKL for 4 days, treated with 10 μM KBU2046 for the indicated time periods, and Western blot for the denoted proteins performed. (B) Effects on cell morphology. RAW 267.4 cells were treated with RANKL and with KBU2046 for 4 days, or not, and denoted, and stained for actin (green) and DAPI (blue); white arrow denotes an actin ring, yellow arrow a resorptive cavity. Representative immunofluorescent images are depicted. (C) Tartrate resistant acid phosphatase (TRAP) expression. Cells were treated as in B, stained for TRAP (denoted by presence of red), and representative images from light microscopy depicted. (D) Bone degradation. RAW 267.4 cells were plated onto Osteo Assay plates, treated with RANKL for 6 days and with KBU2046 (or vehicle for controls) as indicated and bone surface area quantified. Data are the mean±SEM (N=3 replicates) of bone surface area, expressed as the percentage of control cells; * denotes P<0.05 compared to control.
Raw 264.7 cells were grown in differentiation medium (described below), with or without KBU2046, for 4 days on a Chamber Slide (Nunc Lab-Tek). Chambers were washed once with PBS, followed by 10-minute fixation in cold 10% neutral-buffered formalin (VWR) and a post-fixation wash with PBS. […] The cells were then incubated for 2 hours at 4° C. in Dylight Phallodin (Cell Signaling technology, #12935) antibody diluted 1:40 in 1×PBS with 1% BSA and 0.3% Triton X-100. Subsequently, the slide was washed once with PBS, a coverslip mounted with ProLong Gold Antifade Reagent with DAPI (Cell Signaling Technology, #8961), and imaged on a Confocal Microscope (Nikon/Yokogawa Spinning Disc).

In assay [3] the test system is prostate specific antigen (PSA). Nature of the assay: PSA expression by qRT/PCR in VCaP cells. It counts as cell-based, human. The settings on record: VCaP cells in androgen depleted media. Here is the method: (§1) Cells were cultured in media depleted of androgen and after a washout of 72 hrs were treated with the synthetic androgen R1881, KBU2046, enzalutamide and/or vehicle (control), and resultant effects upon induction of the androgen-responsive gene, prostate specific antigen (PSA) were measured (FIG. 3A).
(§2) LNCaP or VCaP cells cultured in hormone free media were treated with R1881 (R), KBU2046 (46) and/or enzalutamide (E). (FIGS. 3A and 3B) Effects on AR-responsive gene expression. PSA expression was measured by qRT/PCR, normalized to GAPDH and expressed as a percent of control cells (N=3 replicates); * denotes P<0.05 for groups separated by bar. (FIGS. 3C and 3D) Effects on cell growth. Three day growth assays were performed. Data are the number of viable cells, expressed as % of control (N=3 replicates); * P<0.05 compared to control. (E) Effects on AR activation. Western blots of nuclear (N) and cytoplasmic (C) preparations of cell extracts were probed for AR, laminin 1 or α-tubulin. (FIGS. 3F and 3G) Effects on tumor outgrowth after androgen deprivation therapy. LNCaP/AR-luc cells were implanted subcutaneously (N=6 mice/cohort) or orthotopic (N=15 mice/cohort were implanted; N=5 yielded tumors) into castrate mice, treatment with KBU2046 began as noted, and weekly IVIS imaging performed. Data are tumor size, expressed as luminescence intensity. All data are expressed as mean±SEM.
(§3) RNA was isolated and qRT/PCR performed as previously described by us (Ding et al., J Biomol Tech 18, 321-330 (2007)). Resultant data were analyzed using the 2^−ΔΔt method (Livak et al., Methods 25, 402-408 (2001)), normalized to GAPDH, for the following primer/probe sets (ABI) PSA (Hs02576345_m1) and GAPDH (Hs99999905_m1). Assays were performed in triplicate, and were repeated.

Assay [4] shares this test system. Nature of the assay: PSA expression by qRT/PCR in LNCaP cells. As to conditions: LNCaP cells in androgen depleted media. The assay is classed as cell-based, human. Here is the method:
as §1, §2, §3

Setting [5] is: experimental compounds with RANKL, day 6, FIGS. 6A-6L.
Setting [6] is: Raf1-specific inhibitors, Supplementary Fig. S5.

As for `O=C(CCOCCNC(=O)COc1ccc2c(c1)OCC(c1ccc(F)cc1)C2=O)NCCCC(O)(P(=O)(O)O)P(=O)(O)O` (centres unmarked) [Compound E (n=1), (4-(3-(2-(2-((3-(4-fluorophenyl)-4-oxochroman-7-yl)oxy)acetamido)ethoxy)propanamido)-1-hydroxybutane-1,1-diyl)bis(phosphonic acid)], in the assay on PC3-luc cells (10, 100 or 1000 ug/kg weekly intraperitoneal, from 1 week before IC injection), the survival entry was “prolongs”. In addition, the “bone destruction in the jaw” value in the assay with PC3-luc cells (10, 100 or 1000 μg/kg weekly intraperitoneal, from 1 week before IC injection, CT) was “inhibits”. Moreover, the osteoclast-mediated bone degradation entry in the assay with RAW 267.4 cells [1] (setting [5]) is on record as “inhibiting”.
Regarding `O=C(CCOCCNC(=O)COc1ccc2c(c1)OCC(c1ccc(F)cc1)C2=O)NCC(O)C[n+]1ccn(CC(O)(P(=O)(O)O)P(=O)(O)O)c1` (centres unmarked) [Compound G, 3-(3-(3-(2-(2-((3-(4-fluorophenyl)-4-oxochroman-7-yl)oxy)acetamido)ethoxy)propanamido)-2-hydroxypropyl)-1-(2-hydroxy-2,2-diphosphonoethyl)-1H-imidazol-3-ium], in the assay on RAW 267.4 cells [1] (setting [5]), the osteoclast-mediated bone degradation entry is “inhibiting”.
Consider `Cc1ccc(NC(=O)c2cccc(N(C)C)c2)cc1NC(=O)c1ccc(O)cc1` [ZM336372], for which the osteoclast-mediated bone degradation result in the assay on RAW 267.4 cells [1] (setting [6]) is “inhibit”. The RANKL-induced osteoclast maturation entry in the assay with RAW 267.4 cells [2] was “inhibit”.
`O=C(CCOCCOCCNC(=O)COc1ccc2c(c1)OCC(c1ccc(F)cc1)C2=O)NCCCC(O)(P(=O)(O)O)P(=O)(O)O` (centres unmarked) [Compound E (n=2), (1-((3-(4-fluorophenyl)-4-oxochroman-7-yl)oxy)-17-hydroxy-2,12-dioxo-6,9-dioxa-3,13-diazaheptadecane-17,17-diyl)bis(phosphonic acid)]: in the assay with RAW 267.4 cells [1] (setting [5]), the osteoclast-mediated bone degradation result was “inhibiting”.
The same measure, in the same setting: to `O=C(CCOCCOCCOCCCNC(=O)COc1ccc2c(c1)OCC(c1ccc(F)cc1)C2=O)NCCCC(O)(P(=O)(O)O)P(=O)(O)O` (centres unmarked) [Compound E (n=3), (1-((3-(4-fluorophenyl)-4-oxochroman-7-yl)oxy)-21-hydroxy-2,16-dioxo-7,10,13-trioxa-3,17-diazahenicosane-21,21-diyl)bis(phosphonic acid)] belongs “inhibiting”.
For the molecule `C[C@]1(O)CC[C@H]2[C@@H]3CCC4=CC(=O)CCC4=C3C=C[C@@]21C` [Compound R1881], the PSA expression entry in assay [3] and in assay [4] was “significantly increased” throughout.
`O=C1Nc2ccc(I)cc2/C1=C/c1cc(Br)c(O)c(Br)c1` [GW5074]: the osteoclast-mediated bone degradation result in the assay with RAW 267.4 cells [1] (setting [6]) is “inhibit”. Besides, the RANKL-induced osteoclast maturation entry in the assay with RAW 267.4 cells [2] is “inhibit”.
With `O=C(CCOCCOCCOCCOCCNC(=O)COc1ccc2c(c1)OCC(c1ccc(F)cc1)C2=O)NCC(O)C[n+]1ccn(CC(O)([PH](=O)O)P(=O)(O)O)c1` (centres unmarked) [Compound I, (2-(3-(1-((3-(4-fluorophenyl)-4-oxochroman-7-yl)oxy)-18-(I1-oxidaneyl)-2,15-dioxo-6,9,12-trioxa-3,16-diazanonadecan-19-yl)-1H-3I4-imidazol-1-yl)-1-hydroxyethane-1,1-diyl)bis(hydrogen phosphonate)], the osteoclast-mediated bone degradation entry with RAW 267.4 cells [1] (setting [5]) is listed as “inhibiting”.
On to `Cc1ccc(C(=O)Nc2cccc(C(F)(F)F)c2)cc1Nc1nc(-c2cccnc2)nc2c1cnn2C` [NVP-BHG712], for which the osteoclast-mediated bone degradation entry in the assay with RAW 267.4 cells [1] (setting [6]) was “inhibit”. Moreover, the RANKL-induced osteoclast maturation entry in the assay on RAW 267.4 cells [2] is recorded as “inhibit”.
Regarding `O=P(O)(O)C(O)(Cn1ccnc1)P(=O)(O)O` [ZA, zoledronic acid], in the assay with PC3-luc cells (oral 150 mg KBU2046/kg daily, intraperitoneal ZA 100 μg/kg weekly, CT), the “improvement of femur bone density compared to control” value turned out to be 56±2.7%.
Consider `O=C(CCOCCOCCOCCNC(=O)COc1ccc2c(c1)OCC(c1ccc(F)cc1)C2=O)NCC(O)C[n+]1ccn(CC(O)([PH](=O)O)P(=O)(O)O)c1` (centres unmarked) [Compound H, (2-(3-(1-((3-(4-fluorophenyl)-4-oxochroman-7-yl)oxy)-15-(I1-oxidaneyl)-2,12-dioxo-6,9-dioxa-3,13-diazahexadecan-16-yl)-1H-3I4-imidazol-1-yl)-1-hydroxyethane-1,1-diyl)bis(hydrogen phosphonate)], for which the osteoclast-mediated bone degradation entry with RAW 267.4 cells [1] (setting [5]) is “inhibiting”.

The values are drawn from patent publication US20220133894A1, “BISPHOSPHONATE-LINKED COMPOUNDS” (OREGON HEALTH & SCIENCE UNIVERSITY, priority 2019, published 2022).
